Values of other authors in publication PMC5758054 (Journal of natural products, 2017).

System: murine colorectal cancer lung metasteses
Details: ref [36],[37]

N#C[C@@H]1CCCN1C(=O)CNC12CC3CC(CC(O)(C3)C1)C2 [Vildagliptin]
in vivo tumor suppressor activity (in words): has in vivo tumor suppressor activity
